Measurements published in US10107794B2, “Methods of using U2-OS cells to identify potential sweet taste modulators” (PepsiCo, Inc., priority 2013, dated 2018).

What was measured:
Type in all cases: cell-based
sweet receptor T1R2/T1R3 [1] = molecular target: T1, sweet receptor T1R2/T1R3 (Homo sapiens, UniProt Q7RTX0+Q8TE23); assay: Calcium assay (FLIPR) in U2-OS cells transfected with Gα15; conditions: U2-OS transfected with Gα15 BacMam; 100 mM
T1 construct: Formation of green fluorescent vesicles in TRANSFLUOR U2-OS cells transfected with BacMam encoding Gα15; endogenous in cells; host or cells: TRANSFLUOR U2-OS cells stably expressing β-arrestin-GFP, transfected with BacMam Gα15
T1 sequence (Q8TE23 20-839): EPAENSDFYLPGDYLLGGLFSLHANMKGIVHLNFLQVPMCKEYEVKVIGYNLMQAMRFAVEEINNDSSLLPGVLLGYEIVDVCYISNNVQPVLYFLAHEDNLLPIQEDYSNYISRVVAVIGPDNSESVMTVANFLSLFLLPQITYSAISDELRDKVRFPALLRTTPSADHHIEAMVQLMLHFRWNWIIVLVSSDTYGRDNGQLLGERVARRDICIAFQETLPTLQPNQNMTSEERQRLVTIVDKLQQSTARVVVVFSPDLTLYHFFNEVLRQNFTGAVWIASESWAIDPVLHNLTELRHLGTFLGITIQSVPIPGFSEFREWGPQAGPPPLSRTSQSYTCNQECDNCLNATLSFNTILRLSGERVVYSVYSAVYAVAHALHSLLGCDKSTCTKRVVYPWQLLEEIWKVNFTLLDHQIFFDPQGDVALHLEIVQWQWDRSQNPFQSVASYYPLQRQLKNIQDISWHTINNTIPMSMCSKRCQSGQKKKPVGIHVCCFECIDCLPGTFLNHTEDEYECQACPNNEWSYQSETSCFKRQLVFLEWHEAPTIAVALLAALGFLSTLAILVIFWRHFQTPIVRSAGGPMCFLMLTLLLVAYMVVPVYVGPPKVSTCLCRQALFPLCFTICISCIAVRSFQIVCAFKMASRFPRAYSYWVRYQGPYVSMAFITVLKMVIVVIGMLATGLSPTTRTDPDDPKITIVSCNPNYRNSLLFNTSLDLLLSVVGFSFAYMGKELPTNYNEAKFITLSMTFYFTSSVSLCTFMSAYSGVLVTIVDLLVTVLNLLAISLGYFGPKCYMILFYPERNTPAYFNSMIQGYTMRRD
T1 sequence (Q7RTX0 21-852): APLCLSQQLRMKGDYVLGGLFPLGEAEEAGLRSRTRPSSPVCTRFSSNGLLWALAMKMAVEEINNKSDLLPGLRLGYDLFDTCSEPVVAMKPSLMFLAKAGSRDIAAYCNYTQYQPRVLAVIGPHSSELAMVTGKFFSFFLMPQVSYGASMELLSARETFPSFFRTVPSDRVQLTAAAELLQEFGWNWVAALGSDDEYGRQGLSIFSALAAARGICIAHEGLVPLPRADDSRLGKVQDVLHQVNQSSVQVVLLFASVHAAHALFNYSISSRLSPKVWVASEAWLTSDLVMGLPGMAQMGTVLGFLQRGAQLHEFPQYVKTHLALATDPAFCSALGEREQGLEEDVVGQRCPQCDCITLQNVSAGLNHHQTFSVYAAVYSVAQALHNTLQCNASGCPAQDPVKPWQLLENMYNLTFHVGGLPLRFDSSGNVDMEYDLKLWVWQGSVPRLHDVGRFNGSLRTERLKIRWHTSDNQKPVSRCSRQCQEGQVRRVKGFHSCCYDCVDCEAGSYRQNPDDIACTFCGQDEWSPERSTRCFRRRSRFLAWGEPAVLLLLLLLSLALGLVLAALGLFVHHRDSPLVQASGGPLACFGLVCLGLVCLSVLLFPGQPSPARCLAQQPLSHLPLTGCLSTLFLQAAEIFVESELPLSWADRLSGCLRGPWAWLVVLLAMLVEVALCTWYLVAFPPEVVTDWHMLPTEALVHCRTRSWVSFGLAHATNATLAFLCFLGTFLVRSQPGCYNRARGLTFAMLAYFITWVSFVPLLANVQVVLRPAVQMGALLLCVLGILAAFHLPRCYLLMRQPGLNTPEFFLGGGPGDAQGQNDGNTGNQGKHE
Description: (§1) U2-OS cells were transiently transfected with 0.5-12 μl of BacMam encoding G protein, gustducin (Gα15, Gα16gust44) per 40,000 cells during 24 h or 48 h. Transfected cells were seeded at density of 5,000 cells/well on PDL-coated 384-well plates.
Calcium traces in Fluo-4AM loaded cells were recorded over time in FLIPR^Tetra (MDC) with λEX=470-495 nm and λEM=515-575 nm. The peak increase in fluorescence over baseline was determined and is expressed as relative fluorescence units (RFU).

sweet receptor T1R2/T1R3 [2] = molecular target: T1, sweet receptor T1R2/T1R3; assay: pERK1/2 assay in U2-OS cells transfected with Gα15; conditions: for pERK1/2 activation: U2-OS cells overexpressing Gα15 (6 μl/40,000 cells), 100 mM
Description: as §1
For pERK1/2 studies, growth media was replaced with media without serum for 2 h. U2-OS cells were treated with 100 mM Sweet compounds with or without of U73122 (10 μM) and with or without […] (20 mM). Control groups of cells also received DMSO (0.1%) in medium. The fixed cells were stained with rabbit anti-phospho-p44/p42 MAPK (pERK1/2) antibodies from Cell Signaling Technologies, then with secondary Alexa 488-conjugated antibodies (Life Technology) and HOECHST 33342. Images were acquired on an ImageXpressMicro (MDC) and analyzed with MWCS Module.
The phosphorylation of ERK1/2 is a common downstream event following GPCR activation via the PLCβ2-IP3 pathway. Growth media was replaced with Dulbecco's phosphate buffered saline (DPBS) without serum for 2 h. […] For each data point, average of Mean Cell Integrated intensity and standard deviation are calculated from quadruplicate data points. […]

sweet receptor T1R2/T1R3 [3] = molecular target: T1, sweet receptor T1R2/T1R3; assay: pERK1/2 assay in parental U2-OS cells (high content imaging); conditions: 100 mM, 5, 15 and 30 minutes
Description: U2-OS cells were grown in McCoy media supplemented with 10% fetal bovine serum. Cells were seeded at density of 5,000 cells/well on PDL-coated 384-well plates.
For pERK1/2 studies, growth media was replaced with media without serum for 2 h. […] (20 mM). Control groups of cells also received DMSO (0.1%) in medium. […] Images were acquired on an ImageXpressMicro (MDC) and analyzed with MWCS Module.
The phosphorylation of ERK1/2 is a common downstream event following GPCR activation via the PLCβ2-IP3 pathway. Growth media was replaced with Dulbecco's phosphate buffered saline (DPBS) without serum for 2 h. […] For each data point, average of Mean Cell Integrated intensity and standard deviation are calculated from quadruplicate data points.

[4] = molecular target: T2, sweet taste receptor T1R2/T1R3/Gα15 (Homo sapiens, UniProt Q7RTX0+Q8TE23); assay: Calcium assay (FLIPR) in JUMP-IN T-REX U2-OS cells with doxycycline-inducible T1R2/T1R3/Gα15; conditions: U73122
T2 construct: expressed in transfected cells; host or cells: JUMP-IN T-REX U2-OS cells
T2 sequence (Q8TE23 20-839): T1 sequence (Q8TE23 20-839)
T2 sequence (Q7RTX0 21-852): T1 sequence (Q7RTX0 21-852)
Description: JUMP-IN T-REX U2-OS cells were transfected with the PJTI-R4EXP-CMV-TO-T1R3/T1R2/Gα15-pA and JTI-R4 Integrase vectors (Life Technology).
The peak increase in fluorescence over baseline was determined and is expressed as relative fluorescence units (RFU).

| Ca2+ response (sweet receptor T1R2/T1R3 [1]) | SMILES | pERK1/2 activation (sweet receptor T1R2/T1R3 [2]) | other results |
| --- | --- | --- | --- |
| significantly increased Ca^(2+) response | OC[C@H]1O[C@@](CO)(O[C@H]2O[C@H](CO)[C@@H](O)[C@H](O)[C@H]2O)[C@@H](O)[C@@H]1O [sucrose] |  |  |
| induced Ca^(2+) response | OC[C@H]1O[C@H](O[C@]2(CCl)O[C@H](CCl)[C@@H](O)[C@@H]2O)[C@H](O)[C@@H](O)[C@H]1Cl [sucralose] |  |  |

Second part, the molecule before the results:

| SMILES | Ca2+ response (sweet receptor T1R2/T1R3 [1]) | pERK1/2 activation (sweet receptor T1R2/T1R3 [2]) | other results |
| --- | --- | --- | --- |
| O=C(CO)[C@@H](O)[C@H](O)[C@H](O)CO [D-fructose] | significantly increased Ca^(2+) response |  |  |
| OC[C@H]1O[C@H](O[C@H]2[C@H](O)[C@@H](O)C(O)O[C@@H]2CO)[C@H](O)[C@@H](O)[C@@H]1O (mixture of isomers) [maltose] |  | increased pERK1/2 activity |  |
| O=C[C@H](O)[C@@H](O)[C@H](O)[C@H](O)CO [D-glucose] | significantly increased Ca^(2+) response | induced pERK1/2 activation in a time-dependent manner | pERK1/2 activation (sweet receptor T1R2/T1R3 [2]; listed as glucose): increased pERK1/2 activity; pERK1/2 activation (sweet receptor T1R2/T1R3 [3]): induced pERK1/2 activation in a time-dependent manner; pERK1/2 activation (sweet receptor T1R2/T1R3 [3]; listed as glucose): activates pERK1/2 |
| COc1ccc2c(c1)CC[C@@H]1[C@@H]2CC[C@]2(C)[C@@H](NCCCCCCN3C(=O)C=CC3=O)CC[C@@H]12 [U73122] |  |  | Effect on Ca2+ release upon treatment with D-glucose and D-fructose [4]: abolished; Effect on Ca2+ response after stimulation with sucrose and sucralose [4]: had no effect; Blockade of pERK1/2 activation (sweet receptor T1R2/T1R3 [2]; U73122 10 μM, U2-OS cells transfected with Gα15): blocked |
